Ends that are not written are not given here.
Columns and labels:
Assay in all cases: In vitro HLA binding assay with purified HLA-DR molecules
[1] = target: HLA-DR DRB1*09:01 (Homo sapiens, UniProt P01903+P01911, A100R/A103E/D57H/D86V/F55Y/F60I/F76Y/I96F/K127E/L162R/M171V/P40D/Q125H/Q99R/R33Q/R42F/S133A/S66N/T210M/V115G/W38K/Y107V/Y59G/Y89S)
[2] = target: HLA-DR DRB1*01:01 (Homo sapiens, UniProt P01903+P01911, A100R/D57E/F55L/F60I/F76Y/I96L/L162R/M171V/P40L/Q125E/R42F/V115G/Y59C); settings: purified HLA-DR molecule; high affinity binding = IC50 <1,000 nM
Experimental: (§1) In vitro binding assays with 14 of the peptides that elicited a response were performed using purified HLA-DR molecules, as previously described (Table 3) ([37]). MHC class II in silico binding predictions were defined, using the IEDB analysis resource ([38]–[40]), combining predictions from the ANN ([41], [42]) and SMM ([43]) algorithms (Supplementary Table 2A).
(§2) To test this hypothesis, we measured the in vitro capacity of the most frequently recognized EXP1 peptides to bind to a panel of 17 of the most prevalent human HLA-DR molecules, since the majority of HLA class II restricted CD4+ T cell responses are presented by these molecules ([49], [50]). Peptides with an IC50 of 1,000 nM or lower, a threshold previously found associated with the vast majority of HLA class II-restricted T cell epitopes, were considered binders to the respective DR molecule ([51]–[53]). […] These include EXP1-P14 which bound to five, EXP1-P15 to 13, EXP1-P16 to 10 and EXP1-P17 to nine different HLA molecules (Table 3).

[3] = target: HLA-DR DRB1*03:01 (Homo sapiens, UniProt P01903+P01911, A100K/A102G/A103R/A169T/F55Y/I96L/K41T/L162R/M171V/P40S/Q125H/Q178H/Q39Y/R42S/S66N/T106N/T262R/W38E/Y61H); settings: purified HLA-DR molecule; high affinity binding = IC50 <1,000 nM
Sequence of HLA-DR DRB1*03:01 (P01903 26-254, other chains not shown): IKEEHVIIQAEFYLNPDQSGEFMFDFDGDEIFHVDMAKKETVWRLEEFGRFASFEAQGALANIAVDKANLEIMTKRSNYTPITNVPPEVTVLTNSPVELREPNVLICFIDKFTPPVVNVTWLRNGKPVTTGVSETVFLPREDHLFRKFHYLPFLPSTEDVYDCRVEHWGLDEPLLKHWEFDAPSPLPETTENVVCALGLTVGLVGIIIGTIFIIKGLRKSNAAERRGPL
Experimental: as §1, §2

[4] = target: HLA-DR DRB1*04:01 (Homo sapiens, UniProt P01903+P01911, A100K/A169T/F76Y/I96L/K127E/L162R/M171V/N62H/P40V/Q125Y/R42H/S133A/S149N/S66Y/V115G/V209L/W38E); settings: purified HLA-DR molecule; high affinity binding = IC50 <1,000 nM
Experimental: as §1, §2

[5] = target: HLA-DR DRB1*04:04 (Homo sapiens, UniProt P01903+P01911, A100R/A169T/F76Y/I96L/K127E/L162R/M171V/N62H/P40V/Q125Y/R42H/S133A/S149N/S66Y/V209L/W38E); settings: purified HLA-DR molecule; high affinity binding = IC50 <1,000 nM
Experimental: as §1, §2

[6] = target: HLA-DR DRB1*04:05 (Homo sapiens, UniProt P01903+P01911, A100R/A169T/D86S/F76Y/I96L/K127E/L162R/M171V/N62H/P40V/Q125Y/R42H/S133A/S149N/S66Y/V115G/V209L/W38E); settings: purified HLA-DR molecule; high affinity binding = IC50 <1,000 nM
Experimental: as §1, §2

[7] = target: HLA-DR DRB1*07:01 (Homo sapiens, UniProt P01903+P01911, A100R/A102G/A103Q/D57E/D86V/E43K/F76Y/K127E/L162R/M171V/P40G/Q125H/Q99D/R33Q/R42Y/R54Q/S133A/S66F/T210M/V115G/Y107V/Y59L/Y89S); settings: purified HLA-DR molecule; high affinity binding = IC50 <1,000 nM
Experimental: as §1, §2

[8] = target: HLA-DR DRB1*08:02 (Homo sapiens, UniProt P01903+P01911, A100R/A103L/A169T/F76Y/H45Y/I96F/K41T/L162R/M171V/P40S/Q125H/Q178H/Q39Y/Q99D/R218S/R42G/S66Y/V115G/W38E); settings: purified HLA-DR molecule; high affinity binding = IC50 <1,000 nM
Experimental: as §1, §2

[9] = target: HLA-DR DRB1*10:01 (Homo sapiens, UniProt P01903+P01911, A100R/A169T/D57E/F55L/F60V/F69Y/F76Y/I96L/L162R/M171V/P40V/Q260P/Q39E/Q99R/R195Q/R42F/S149N/S66Y/T210M/V115G/V67A/W38E/Y59R/Y61H); settings: purified HLA-DR molecule; high affinity binding = IC50 <1,000 nM
Experimental: as §1, §2

[10] = target: HLA-DR DRB1*11:01 (Homo sapiens, UniProt P01903+P01911, A100R/A169T/A87E/I96F/K41T/L162R/M171V/P40S/Q125H/Q178H/Q39Y/Q99D/R42S/S66Y/T262R/V115G/W38E); settings: purified HLA-DR molecule; high affinity binding = IC50 <1,000 nM
Sequence of HLA-DR DRB1*11:01 (P01903 26-254 limits assumed, other chains not shown): as the sequence (P01903 26-254, other chains not shown) above
Experimental: as §1, §2

[11] = target: HLA-DR DRB1*13:02 (Homo sapiens, UniProt P01903+P01911, A100E/A169T/K41T/L162R/M171V/P40S/Q125H/Q178H/Q39Y/Q99D/R42S/S66N/T262R/V115G/W38E/Y61H); settings: purified HLA-DR molecule; high affinity binding = IC50 <1,000 nM
Sequence of HLA-DR DRB1*13:02 (P01903 26-254 limits assumed, other chains not shown): as the sequence (P01903 26-254, other chains not shown) above
Experimental: as §1, §2

[12] = target: HLA-DR DRB1*15:01 (Homo sapiens, UniProt P01903+P01911); settings: purified HLA-DR molecule; high affinity binding = IC50 <1,000 nM
Experimental: as §1, §2

[13] = target: HLA-DR DRB3*01:01 (Homo sapiens, UniProt P01903+P79483); settings: purified HLA-DR molecule; high affinity binding = IC50 <1,000 nM
Experimental: as §1, §2

[14] = target: HLA-DR DRB3*02:02 (Homo sapiens, UniProt P01903+P79483, A212P/D57E/F66Y/L67A/R103Q/R218S/R40L/S89Y/T80R/V86D/Y55F/Y59H); settings: purified HLA-DR molecule; high affinity binding = IC50 <1,000 nM
Sequence of HLA-DR DRB3*02:02 (P01903 26-254 limits assumed): as the sequence (P01903 26-254, other chains not shown) above
Sequence of HLA-DR DRB3*02:02 (P79483 30-266 R40L/Y55F/D57E/Y59H/F66Y/L67A/T80R/V86D/S89Y/R103Q/A212P/R218S limits assumed): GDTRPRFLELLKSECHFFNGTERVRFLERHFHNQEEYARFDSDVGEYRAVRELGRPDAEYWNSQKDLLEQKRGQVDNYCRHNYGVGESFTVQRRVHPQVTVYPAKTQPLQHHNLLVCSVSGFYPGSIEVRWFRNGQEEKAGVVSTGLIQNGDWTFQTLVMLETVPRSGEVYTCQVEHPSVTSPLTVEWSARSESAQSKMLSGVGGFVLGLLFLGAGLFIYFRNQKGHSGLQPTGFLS
Experimental: as §1, §2

[15] = target: HLA-DR DRB4*01:01 (Homo sapiens, UniProt P01903+P13762, G164S); settings: purified HLA-DR molecule; high affinity binding = IC50 <1,000 nM
Experimental: as §1, §2

[16] = target: HLA-DR DRB5*01:01 (Homo sapiens, UniProt P01903+Q30154); settings: purified HLA-DR molecule; high affinity binding = IC50 <1,000 nM
Experimental: as §1, §2

[17] = target: HLA-DR DRB1*13:01 (Homo sapiens, UniProt P01903+P01911, A100E/A169T/K41T/L162R/M171V/P40S/Q125H/Q178H/Q39Y/Q99D/R42S/S66N/T262R/W38E/Y61H); settings: purified HLA-DR molecule; high affinity binding = IC50 <1,000 nM
Experimental: as §1, §2

Sequence	IC50 [1] [nM]	IC50 [2] [nM]	IC50 [3] [nM]	IC50 [4] [nM]	IC50 [5] [nM]	IC50 [6] [nM]	IC50 [7] [nM]	IC50 [8] [nM]	IC50 [9] [nM]	IC50 [10] [nM]	IC50 [11] [nM]	IC50 [12] [nM]	IC50 [13] [nM]	IC50 [14] [nM]	IC50 [15] [nM]	IC50 [16] [nM]	IC50 [17] [nM]
RKSKYKLATSVLAGLL [EXP1-P15]	3.9	1.1	5820	1.2	48	7.4	1.4	11900	1.8	7	39000	195	47	2	230	1	–
EPLIDVHDLISDMIK [EXP1-P10]	–	6020	6770	27500	1110	31000	–	2840	–	–	–	29200	7960	–	162	–	–
GSGVSSKKKNKKGSG [EXP1-P07]	–	–	–	–	–	–	–	–	–	–	–	–	–	–	–	4560	1980
NANPDADSESNGEPN [EXP1-P25]	–	19600	–	16700	12500	18200	–	4010	33600	23200	–	1100	–	–	12000	31100	–
KEEELVEVNKRKSKY [EXP1-P13]	–	–	–	–	–	–	–	–	–	142	–	–	–	–	17900	1120	1190
KLATSVLAGLLGVVS [EXP1-P16]	1360	11	10800	380	454	539	133	1150	152	810	–	2270	6100	481	567	244	32400
SKKKNKKGSGEPLID [EXP1-P08]	–	–	–	–	–	–	–	30000	–	–	–	–	–	–	–	–	–
